Results reported in ChEMBL document CHEMBL1152081, “1,25-Dihydroxyvitamin D3 Hybrid Analogs with Structural changes at both the A-ring and the C,D-ring side-chain. II” (1995).

Tests used:
Format in all cases: functional
Rattus norvegicus [1] = species: Rattus norvegicus; test: Stimulation of calcium currents by the compound in rat osteosarcoma cells at a concentration of 5.0 nM
Rattus norvegicus [2] = species: Rattus norvegicus; test: Stimulation of calcium currents by the compound in rat osteosarcoma cells at a concentration of 0.5 nM
Rattus norvegicus [3] = species: Rattus norvegicus; test: Stimulation of calcium currents by the compound in rat osteosarcoma cells at a concentration of 0.01 nM
Rattus norvegicus [4] = species: Rattus norvegicus; test: Stimulation of calcium currents by the compound in rat osteosarcoma cells at a concentration of 0.05 nM

Structure (SMILES)	Ca2+ current (Rattus norvegicus [1])	Ca2+ current (Rattus norvegicus [2])	Ca2+ current (Rattus norvegicus [3])	Ca2+ current (Rattus norvegicus [4])
C=C1/C(=C\C=C2/CCC[C@]3(C)C([C@@H](C)CSc4cccc(C(C)(C)O)c4)CC[C@@H]23)C[C@H](O)C[C@H]1CO (stereo not given in full)	8.58 mV	6.24 mV		
C=C1/C(=C\C=C2/CCC[C@]3(C)C([C@@H](C)COCCCC(C)(C)O)CC[C@@H]23)C[C@@H](O)C[C@@H]1CO (stereo not given in full)	8.99 mV	8.8 mV	5.42 mV	7.33 mV
C=C1/C(=C\C=C2/CCC[C@]3(C)[C@@H]([C@H](C)CCCC(C)(C)O)CC[C@@H]23)C[C@@H](O)C[C@@H]1O [CALCITRIOL]	9.79 mV	5.73 mV		1.78 mV
C=C1/C(=C\C=C2/CCC[C@]3(C)C([C@@H](C)COCCCC(C)(C)O)CC[C@@H]23)C[C@H](O)C[C@H]1CO (stereo not given in full)	8.93 mV	10 mV	4.94 mV	7.3 mV
C=C1/C(=C\C=C2/CCC[C@]3(C)C([C@@H](C)CSc4cccc(C(C)(C)O)c4)CC[C@@H]23)C[C@@H](O)C[C@@H]1CO (stereo not given in full)	11.18 mV	6.6 mV		
